The source of these data is patent US11999727B2 (Tango Therapeutics, Inc., priority 2020, dated 2024).

Test [1] concerns the target T1, PRMT5 (Homo sapiens, UniProt O14744).
T1 construct: purchased Viva (custom protein)
As to the kind of experiment: PRMT5 biochemical IC50 assay with SAM as cofactor. The note with it: PRMT5, SAM as cofactor; read-out: SAM IC50.

The target in test [2] is T1, PRMT5. Put plainly: PRMT5 biochemical IC50 assay with no cofactor. The note with it: PRMT5, no cofactor. From the text: Table 1 indicates IC50 values (μM) against PRMT5 for exemplary compounds in the presence of SAM as cofactor, with no cofactor, and with MTA as cofactor, respectively (columns 4-6). […] Ki values can be calculated from the IC50 values as described in the Examples section. As detailed in the Examples section, for the assay performed in the presence of SAM, IC50=Ki×1.5 (Ki=IC50/1.5).

Test [3] deals with T1, PRMT5. As to the kind of experiment: PRMT5 biochemical IC50 assay with MTA as cofactor. The note with it: PRMT5, MTA as cofactor; read-out: MTA IC50.
Test [4] relates to HAP1 MTAP-intact cell line. Put plainly: SDMA in-cell western assay, HAP1 MTAP-intact. In kind it is cell-based. The note with it: Homo sapiens, HAP1, SDMA in-cell western, HAP1 MTAP-intact; read-out: MTAP HAP1 intact IC50. Put shortly: (§1)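 Compounds were tested in HAP1 cells differing only in MTAP status (endogenous expression versus null). Cellular SDMA levels were then measured by in-cell western, giving an IC50 in each background.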

For test [5], the system named is HAP1 MTAP-deleted cell line. As to the kind of experiment: SDMA in-cell western assay, HAP1 MTAP-deleted. The class given is cell-based. The note with it: for IC50: Homo sapiens, HAP1, SDMA in-cell western, HAP1 MTAP-deleted; for MTAP intact/deleted ratio: SDMA in-cell western. Put shortly:
as §1

For test [6], the system named is HAP1 MTAP-deleted cell line. Put plainly: Viability assay, MTAP-deleted cell line. The class given is cell-based. The note with it: Homo sapiens, read-out: HAP1 MTAP deleted viability. From the text:
Table 1 additionally indicates IC50 values in a viability assay for the MTAP-deleted cell line (column 10), indicating the effect of treatment with compound on cell survival.

The mark [7] stands for this setting: read-out: HAP 1 MTAP deleted IC50.
Setting [8] is: IC50 ratio HAP1 MTAP-intact / HAP1 MTAP-deleted.
The mark [9] stands for this setting: read-out: No Cofactor/ rel IC50.
Setting [10] is: HAP1, viability assay, MTAP-deleted cell line.
The mark [11] stands for this setting: read-out: HAP1 MTAP deleted IC50.
The mark [12] stands for this setting: HAP1, viability assay, HAP1 MTAP-deleted.
The mark [13] stands for this setting: HAP1, viability, HAP1 MTAP-deleted cell line.

T1 sequence (O14744 whole entry): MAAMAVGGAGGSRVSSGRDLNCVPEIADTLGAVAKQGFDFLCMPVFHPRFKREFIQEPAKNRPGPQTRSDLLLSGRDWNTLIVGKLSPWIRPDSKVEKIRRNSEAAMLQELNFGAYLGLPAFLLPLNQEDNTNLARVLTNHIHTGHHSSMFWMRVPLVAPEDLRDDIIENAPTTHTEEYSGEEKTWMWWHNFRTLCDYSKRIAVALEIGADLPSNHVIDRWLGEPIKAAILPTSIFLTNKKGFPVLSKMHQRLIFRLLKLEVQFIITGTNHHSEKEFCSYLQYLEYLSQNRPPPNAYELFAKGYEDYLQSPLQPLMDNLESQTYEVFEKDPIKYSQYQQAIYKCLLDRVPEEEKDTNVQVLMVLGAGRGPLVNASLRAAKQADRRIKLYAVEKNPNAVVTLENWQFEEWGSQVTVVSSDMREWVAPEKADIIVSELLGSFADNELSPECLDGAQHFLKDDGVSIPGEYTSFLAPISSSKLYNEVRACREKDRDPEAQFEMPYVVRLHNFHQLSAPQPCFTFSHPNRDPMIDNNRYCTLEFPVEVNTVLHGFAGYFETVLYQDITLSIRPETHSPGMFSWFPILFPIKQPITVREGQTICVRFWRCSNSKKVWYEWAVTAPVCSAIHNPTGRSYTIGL
T1 sequence (Q9BQA1 whole entry partner): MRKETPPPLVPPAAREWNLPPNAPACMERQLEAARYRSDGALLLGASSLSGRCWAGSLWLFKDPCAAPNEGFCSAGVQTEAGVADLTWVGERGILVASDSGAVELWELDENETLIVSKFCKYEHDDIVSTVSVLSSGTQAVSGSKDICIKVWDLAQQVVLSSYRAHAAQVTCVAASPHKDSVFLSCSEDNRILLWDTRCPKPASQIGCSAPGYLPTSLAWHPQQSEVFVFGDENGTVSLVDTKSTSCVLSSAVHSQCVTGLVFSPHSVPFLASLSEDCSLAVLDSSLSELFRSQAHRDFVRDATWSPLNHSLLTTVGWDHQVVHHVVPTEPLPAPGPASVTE

For the molecule `NC(=O)c1cncc(NC(=O)C(=O)N2C[C@H](c3cc[nH]n3)CC[C@H]2c2ccccc2)c1` (racemic) [Compound 669, rac-5-(2-oxo-2-((2R,5S)-2-phenyl-5-(1H-pyrazol-5-yl)piperidin-1-yl)acetamido)nicotinamide], the IC50 at PRMT5 [1] was greater than 500 nM; at PRMT5 [2] (read-out: No Cofactor/rel IC50), greater than 500 nM; on PRMT5 [3], 50 to 500 nM; in test [4] it was greater than 1000 nM; in test [5] (setting [7]), greater than 1000 nM; in test [6] (HAP1, viability IC50, MTAP-deleted cell line) it was greater than 10000 nM. In test [5] (setting [8]), the MTAP intact/deleted ratio entry is on record as “C (an IC50 ratio of less than 3 fold)”.
As to `C[C@@H]1CC[C@H](c2ccnn2C)N(C(=O)C(=O)Nc2cncc(C(N)=O)c2)C1` (racemic) [Compound 72, 5-(2-(5-methyl-2-(1-methyl-1H-pyrazol-5-yl)piperidin-1-yl)-2-oxoacetamido)nicotinamide], the IC50 was 50 to 500 nM on PRMT5 [1]; 50 to 500 nM at PRMT5 [2] (setting [9]); 50 to 500 nM at PRMT5 [3]; greater than 1000 nM in test [4]; 100 to 1000 nM in test [5] (setting [7]); greater than 10000 nM in test [6] (setting [10]). In addition, the “MTAP intact/deleted ratio” value in test [5] (setting [8]) was “A (an IC50 ratio greater than or equal to 10 fold)”.
Consider `Cc1cc(NC(=O)C(=O)N2C[C@H](C)CC[C@H]2c2ccc(C(F)F)nc2)cnc1N` (single isomer, unassigned) [Compound 1011], for which the IC50 at PRMT5 [1] was greater than 500 nM; at PRMT5 [2] (read-out: No Cofactor/rel IC50), greater than 500 nM; at PRMT5 [3], greater than 500 nM; in test [4] it was greater than 1000 nM; in test [5] (setting [7]), greater than 1000 nM; in test [6] (setting [10]) it was greater than 10000 nM. The MTAP intact/deleted ratio entry in test [5] (setting [8]) is recorded as “C (an IC50 ratio of less than 3 fold)”.
For the molecule `CCc1cc(NC(=O)C(=O)N2C[C@@H](C)CC[C@@H]2c2ccc(-c3cncs3)cc2)cnc1N` (single isomer, unassigned) [Compound 827, N-(6-amino-5-ethylpyridin-3-yl)-2-(5-methyl-2-(4-(thiazol-5-yl)phenyl)piperidin-1-yl)-2-oxoacetamide], the IC50 was greater than 500 nM at PRMT5 [1]; greater than 500 nM at PRMT5 [2] (read-out: No Cofactor/rel IC50); 50 to 500 nM on PRMT5 [3]; greater than 1000 nM in test [4]; 100 to 1000 nM in test [5] (setting [11]); greater than 10000 nM in test [6] (setting [12]). Besides, the MTAP intact/deleted ratio entry in test [5] (setting [8]) is on record as “A (an IC50 ratio greater than or equal to 10 fold)”.
Consider `CCc1cc(NC(=O)C(=O)N2C[C@@H](C)CC[C@@H]2c2ccc3sc([C@@H](C)CN(C)C)nc3c2)cnc1N` [Compound 1324, N-(6-amino-5-ethylpyridin-3-yl)-2-((2R,5S)-2-(2-(1-(dimethylamino)propan-2-yl)benzo[d]thiazol-5-yl)-5-methylpiperidin-1-yl)-2-oxoacetamide], for which the IC50 at PRMT5 [1] was less than 50 nM; at PRMT5 [2] (setting [9]), less than 50 nM; on PRMT5 [3], less than 50 nM; in test [4], less than 100 nM; in test [5] (setting [7]), less than 100 nM; in test [6] (setting [13]), less than 1000 nM. For the same molecule, the “MTAP intact/deleted ratio” value in test [5] (setting [8]) is on record as “A (an IC50 ratio greater than or equal to 10 fold)”.
As for `COc1ncc(NC(=O)C(=O)N2C[C@H](C)CC[C@H]2c2ccc(NC(C)=O)nc2)cc1C(N)=O` (single isomer, unassigned) [Compound 930], the IC50 is 50 to 500 nM at PRMT5 [1]; 50 to 500 nM at PRMT5 [2] (read-out: No Cofactor/rel IC50); less than 50 nM on PRMT5 [3]; greater than 1000 nM in test [4]; less than 100 nM in test [5] (setting [7]); 1000 to 10000 nM in test [6] (setting [10]). The MTAP intact/deleted ratio entry in test [5] (setting [8]) was “A (an IC50 ratio greater than or equal to 10 fold)”.
Take `CCc1cc(NC(=O)C(=O)N2C[C@@H](C)C(F)(F)C[C@@H]2c2ccc(F)c(F)c2)cnc1N` (single isomer, unassigned) [Compound 721]: the IC50 on PRMT5 [1] is 50 to 500 nM; at PRMT5 [2] (read-out: No Cofactor/rel IC50) it was less than 50 nM; on PRMT5 [3], less than 50 nM; in test [4], greater than 1000 nM; in test [5] (setting [11]) it was less than 100 nM; in test [6] (setting [12]) it was less than 1000 nM. In test [5] (setting [8]), the MTAP intact/deleted ratio entry was “A (an IC50 ratio greater than or equal to 10 fold)”.
Take `C[C@H]1CC[C@H](c2cn[nH]c2)N(C(=O)C(=O)Nc2cncc(C(N)=O)c2)C1` (single isomer, unassigned) [Compound 942]: the IC50 on PRMT5 [1] is 50 to 500 nM; on PRMT5 [2] (read-out: No Cofactor/rel IC50), 50 to 500 nM; on PRMT5 [3] it was less than 50 nM; in test [4] it was greater than 1000 nM; in test [5] (setting [7]), 100 to 1000 nM; in test [6] (setting [10]) it was greater than 10000 nM. The MTAP intact/deleted ratio entry in test [5] (setting [8]) is “A (an IC50 ratio greater than or equal to 10 fold)”.
In the case of `Cc1csc(C2CCCCN2C(=O)C(=O)Nc2cnc(N)c(C)c2)n1` (stereo not drawn) [Compound 49, N-(6-Amino-5-methyl-3-pyridyl)-2-[2-(4-methylthiazol-2-yl)-1-piperidyl]-2-oxo-acetamide], the IC50 was 50 to 500 nM at PRMT5 [1]; 50 to 500 nM at PRMT5 [2] (setting [9]); less than 50 nM at PRMT5 [3]; greater than 1000 nM in test [4]; 100 to 1000 nM in test [5] (setting [7]); greater than 10000 nM in test [6] (setting [10]). For the same molecule, in test [5] (setting [8]), the “MTAP intact/deleted ratio” value is “A (an IC50 ratio greater than or equal to 10 fold)”.
With `CCc1cc(NC(=O)C(=O)N2C[C@@H](C)CC[C@@H]2c2cccc(OCCN3CCCC3)c2)cnc1N` [Compound 1391, N-(6-amino-5-ethylpyridin-3-yl)-2-((2R,5)-5-methyl-2-(3-(2-(pyrrolidin-1-yl)ethoxy)phenyl)piperidin-1-yl)-2-oxoacetamide], the IC50 at PRMT5 [1] was less than 50 nM; on PRMT5 [2] (setting [9]), less than 50 nM; at PRMT5 [3] it was less than 50 nM; in test [4], 100 to 1000 nM; in test [5] (setting [7]), less than 100 nM; in test [6] (setting [13]), less than 1000 nM. Further, in test [5] (setting [8]), the “MTAP intact/deleted ratio” value is recorded as “A (an IC50 ratio greater than or equal to 10 fold)”.
In the case of `C[C@H]1CC[C@H](c2cc3[nH]ncc3s2)N(C(=O)C(=O)Nc2cncc(C(N)=O)c2)C1` (single isomer, unassigned) [Compound 873, 5-(2-(5-methyl-2-(1H-thieno[3,2-c]pyrazol-5-yl)piperidin-1-yl)-2-oxoacetamido)nicotinamide], the IC50 on PRMT5 [1] is 50 to 500 nM; on PRMT5 [2] (read-out: No Cofactor/rel IC50) it was 50 to 500 nM; at PRMT5 [3], less than 50 nM; in test [4] it was greater than 1000 nM; in test [5] (setting [11]), less than 100 nM; in test [6] (setting [12]), less than 1000 nM. Moreover, the MTAP intact/deleted ratio entry in test [5] (setting [8]) is “A (an IC50 ratio greater than or equal to 10 fold)”.
With `Cc1cc(NC(=O)C(=O)N2C[C@H](C)CC[C@H]2c2ccc3ncsc3c2)cnc1N` (racemic) [Compound 716, N-(6-amino-5-methyl-3-pyridyl)-2-[(2S,5R)-2-(1,3-benzothiazol-6-yl)-5-methyl-1-piperidyl]-2-oxo-acetamide], the IC50 was 50 to 500 nM on PRMT5 [1]; 50 to 500 nM at PRMT5 [2] (read-out: No Cofactor/rel IC50); less than 50 nM on PRMT5 [3]; greater than 1000 nM in test [4]; less than 100 nM in test [5] (setting [11]); less than 1000 nM in test [6] (setting [12]). For the same molecule, the MTAP intact/deleted ratio entry in test [5] (setting [8]) is on record as “A (an IC50 ratio greater than or equal to 10 fold)”.
On to `Cc1cc(NC(=O)C(=O)N2C[C@H](C)CC[C@H]2c2cccc(S(C)(=O)=O)c2)cnc1N` (single isomer, unassigned) [Compound 895], for which the IC50 at PRMT5 [1] is 50 to 500 nM; at PRMT5 [2] (read-out: No Cofactor/rel IC50), 50 to 500 nM; on PRMT5 [3] it was less than 50 nM; in test [4] it was 100 to 1000 nM; in test [5] (setting [7]) it was less than 100 nM; in test [6] (setting [10]) it was 1000 to 10000 nM. In test [5] (setting [8]), the MTAP intact/deleted ratio entry is “B (an IC50 ratio greater than or equal to 3 fold but lower than 10 fold)”.
Consider `Cc1cc(NC(=O)C(=O)N2C[C@H](C)CC[C@H]2c2cccc(N3CCN(C)CC3)c2)cnc1N` (racemic) [Compound 1223, N-(6-amino-5-methylpyridin-3-yl)-2-(5-methyl-2-(3-(4-methylpiperazin-1-yl)phenyl)piperidin-1-yl)-2-oxoacetamide], for which the IC50 is 50 to 500 nM at PRMT5 [1]; 50 to 500 nM at PRMT5 [2] (read-out: No Cofactor/rel IC50); less than 50 nM at PRMT5 [3]; 100 to 1000 nM in test [4]; less than 100 nM in test [5] (setting [11]); less than 1000 nM in test [6] (setting [10]). Also, the MTAP intact/deleted ratio entry in test [5] (IC50 ratio HAP1 MTAP-intact vs HAP1 MTAP-deleted) was “A (an IC50 ratio greater than or equal to 10 fold)”.
Consider `CCc1cc(NC(=O)C(=O)N2C[C@H](C)CC[C@H]2c2ccc3c(c2)CCC(=O)N3)cnc1N` (single isomer, unassigned) [Compound 720], for which the IC50 at PRMT5 [1] is 50 to 500 nM; at PRMT5 [2] (read-out: No Cofactor/rel IC50), less than 50 nM; at PRMT5 [3], less than 50 nM; in test [4] it was 100 to 1000 nM; in test [5] (setting [11]), less than 100 nM; in test [6] (setting [12]), less than 1000 nM. For the same molecule, in test [5] (setting [8]), the MTAP intact/deleted ratio entry is reported as “A (an IC50 ratio greater than or equal to 10 fold)”.
